What was measured:
[1] = target: T1, rat pregnane X receptor (rPXR) (Rattus norvegicus, UniProt Q9R1A7); assay: GAL4-LBD luciferase reporter assay in LS180 cells at […] DCHP; format: cell-based
T1 construct: gene Nr1i2
T1 sequence (Q9R1A7 143-431 limits assumed): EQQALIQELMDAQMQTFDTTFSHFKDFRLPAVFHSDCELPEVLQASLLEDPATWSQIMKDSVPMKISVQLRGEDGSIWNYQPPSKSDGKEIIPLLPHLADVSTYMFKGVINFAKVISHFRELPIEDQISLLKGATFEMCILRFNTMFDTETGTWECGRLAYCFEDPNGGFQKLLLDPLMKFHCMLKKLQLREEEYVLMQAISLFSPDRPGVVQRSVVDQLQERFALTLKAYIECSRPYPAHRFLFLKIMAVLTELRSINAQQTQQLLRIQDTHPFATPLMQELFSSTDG

[2] = target: T2, pregnane X receptor (hPXR) (Homo sapiens, UniProt O75469); assay: LanthaScreen TR-FRET competitive binding assay with recombinant GST-hPXR LBD; also cell reporter assay (EC50 […])
T2 construct: gene NR1I2
T2 sequence (O75469 130-434 limits assumed): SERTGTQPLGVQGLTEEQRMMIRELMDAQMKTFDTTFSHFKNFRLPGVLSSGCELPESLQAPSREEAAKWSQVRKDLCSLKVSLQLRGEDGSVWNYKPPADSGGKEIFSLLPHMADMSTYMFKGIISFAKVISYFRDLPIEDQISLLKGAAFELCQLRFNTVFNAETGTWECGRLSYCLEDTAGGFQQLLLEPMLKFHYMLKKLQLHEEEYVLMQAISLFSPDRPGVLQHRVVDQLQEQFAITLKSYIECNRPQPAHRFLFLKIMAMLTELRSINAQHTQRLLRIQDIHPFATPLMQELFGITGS

[3] = target: T2, pregnane X receptor (hPXR); assay: LanthaScreen TR-FRET competitive binding assay with recombinant GST-hPXR LBD (positive control); also cell reporter assay

Row | SMILES | GAL4-LBD luciferase reporter assay in LS180 cells at 10 μM DCHP [1] | IC50 [2] | LanthaScreen TR-FRET competitive binding assay with recombinant GST-hPXR LBD (po) [3]
1 | O=C(OC1CCCCC1)c1ccccc1C(=O)OC1CCCCC1 [DCHP, dicyclohexyl phthalate] | DCHP activated three forms of PXR including hPXR, mPXR, and rat PXR (rPXR) | 7.3 µM | –
2 | CCCCC(CC)COC(=O)c1ccccc1C(=O)OCC(CC)CCCC (stereo not drawn) [DEHP, di(2-ethylhexyl) phthalate] | – | – | inhibition of FRET between fluorescein-labeled PXR ligand and recombinant GST-PXR LBD by DCHP and DEHP

— paper PMC8634903, “Effects of Dicyclohexyl Phthalate Exposure on PXR Activation and Lipid Homeostasis in Mice” (Environmental Health Perspectives, 2021)
